Patent US8445510B2, “Fused bicyclic kinase inhibitors” (OSI Pharmaceuticals, LLC, priority 2011, dated 2013)
pIC50: −log10 of the molar value.

Assays:
RON = molecular target: T1, RON (Homo sapiens, UniProt Q04912); assay: sfRON cell mechanistic assay (HeLa), phosphorylated RON ELISA; type: cell-based; settings: HeLa cells transfected with sfRON; inhibition of phosphorylated RON; four hours incubation; at least duplicate experiments; read-out: sfRON mech IC50
T1 sequence (Q04912 913-1400): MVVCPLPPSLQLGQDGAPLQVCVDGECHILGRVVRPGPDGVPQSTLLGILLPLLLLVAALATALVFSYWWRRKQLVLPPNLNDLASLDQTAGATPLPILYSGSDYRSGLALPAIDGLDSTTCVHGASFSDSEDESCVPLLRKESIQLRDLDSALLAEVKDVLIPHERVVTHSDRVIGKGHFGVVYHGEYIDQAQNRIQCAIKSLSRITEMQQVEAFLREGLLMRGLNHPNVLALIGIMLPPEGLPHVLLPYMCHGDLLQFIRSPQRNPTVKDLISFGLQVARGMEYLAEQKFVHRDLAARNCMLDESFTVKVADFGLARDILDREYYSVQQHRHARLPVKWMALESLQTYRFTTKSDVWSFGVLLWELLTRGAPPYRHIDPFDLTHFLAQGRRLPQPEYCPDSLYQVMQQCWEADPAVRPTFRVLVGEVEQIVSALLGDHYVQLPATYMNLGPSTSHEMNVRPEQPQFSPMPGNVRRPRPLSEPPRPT
In short: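 HeLa cells transiently transfected with sfRON plasmid, then exposed 4 h at 37 °C to a 6-point compound series (typically 10 μM to 3 nM, 0.5% DMSO). Phospho-RON (pY1238/1239) in lysates measured by sandwich ELISA with luminescence. IC50 from 4-parameter fit of percent-of-DMSO-control data, at least duplicate runs.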

Aurora B = molecular target: T2, Aurora B (Homo sapiens, UniProt Q96GD4); assay: Aurora B cell mechanistic assay (HT-29), phospho-Histone H3 (Ser10) ELISA; type: cell-based; settings: HT-29 cell line; inhibition of phospho-Histone H3 (Ser10); at least duplicate experiments (italicized if single experiment); read-out: Aurora B mech IC50
T2 construct: HT-29 cells grown in complete growth media
In short: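 HT-29 cells treated 1 h at 37 °C with serially diluted compound, then 100 nM Calyculin A added for 30 min. Lysates assayed by phospho-Histone H3 (Ser10) ELISA at 450 nm; normalized to DMSO (100%) and a reference Aurora B inhibitor (full inhibition); IC50 by four-parameter fit.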

T2 sequence (Q96GD4 whole entry): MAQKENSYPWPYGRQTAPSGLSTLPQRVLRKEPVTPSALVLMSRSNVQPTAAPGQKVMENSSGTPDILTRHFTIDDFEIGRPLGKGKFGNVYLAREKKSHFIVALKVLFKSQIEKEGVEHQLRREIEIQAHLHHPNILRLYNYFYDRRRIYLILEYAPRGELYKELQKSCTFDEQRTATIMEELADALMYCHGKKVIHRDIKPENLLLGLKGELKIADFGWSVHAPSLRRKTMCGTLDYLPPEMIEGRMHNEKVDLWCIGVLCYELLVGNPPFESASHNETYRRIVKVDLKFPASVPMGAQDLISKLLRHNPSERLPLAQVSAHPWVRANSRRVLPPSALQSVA

Compound | pIC50 (RON) | pIC50 (Aurora B)
[2H]C([2H])([2H])c1c(-c2cnc3[nH]cc([C@H](C)c4c(OC(F)F)ccc(F)c4Cl)c3c2)cnn1[C@H]1CC[C@H](O)CC1 [Example 85, trans-4-[4-(3-{(1S)-1-[2-Chloro-6-(difluoromethoxy)-3-fluorophenyl]ethyl}-1H-pyrrolo[2,3-b]pyridin-5-yl)-5-(^2H3)methyl-1H-pyrazol-1-yl]cyclohexanol] | 6.00 to 6.70 | 6.00 to 6.70
Cc1c(-c2cnc3[nH]cc(C(C#N)c4c(Cl)ccc(F)c4Cl)c3c2)cnn1[C@H]1CC[C@H](O)CC1 (stereo partly drawn) [Example 108, (2,6-Dichloro-3-fluorophenyl){5-[1-(trans-4-hydroxycyclohexyl)-5-methyl-1H-pyrazol-4-yl]-1H-pyrrolo[2,3-b]pyridin-3-yl}acetonitrile] | < 6.00 | < 6.00
COc1ccc(F)c(Cl)c1[C@@H](C)c1c[nH]c2ncc(-c3c(C)nn(C)c3C)cc12 [Example 4, 3-[(1S)-1-(2-Chloro-3-fluoro-6-methoxyphenyl)ethyl]-5-(1,3,5-trimethyl-1H-pyrazol-4-yl)-1H-pyrrolo[2,3-b]pyridine] | < 6.00 | < 6.00
Cc1nn(C[C@H](O)CO)cc1-c1cnc2[nH]cc([C@H](C)c3c(OC(F)F)ccc(F)c3Cl)c2c1 [Example 71, (2S)-3-[4-(3-{(1S)-1-[2-Chloro-6-(difluoromethoxy)-3-fluorophenyl]ethyl}-1H-pyrrolo[2,3-b]pyridin-5-yl)-3-methyl-1H-pyrazol-1-yl]propane-1,2-diol] | ≥ 6.70 | 6.70 to 7.30
COc1ccc(F)c(Cl)c1[C@@H](C)c1c[nH]c2ncc(-c3cnn([C@@H]4C[C@@H](O)[C@@H](O)C4)c3C)cc12 [Example 31, (1R,2S,4S)-4-(4-{3-[(1S)-1-(2-Chloro-3-fluoro-6-methoxyphenyl)ethyl]-1H-pyrrolo[2,3-b]pyridin-5-yl}-5-methyl-1H-pyrazol-1-yl)cyclopentane-1,2-diol] | 6.00 to 6.70 | < 6.00

Continued, values first:

pIC50 (RON) | pIC50 (Aurora B) | Compound
≥ 6.70 | 6.00 to 6.70 | COc1ccc(F)c(Cl)c1[C@@H](C)c1c[nH]c2ncc(-c3cnn(C[C@H](O)CO)c3C)cc12 [Example 10, (2S)-3-(4-{3-[(1S)-1-(2-Chloro-3-fluoro-6-methoxyphenyl)ethyl]-1H-pyrrolo[2,3-b]pyridin-5-yl}-5-methyl-1H-pyrazol-1-yl)propane-1,2-diol]
6.00 to 6.70 | < 6.00 | CCc1c(-c2cnc3[nH]cc([C@H](C)c4c(OC)ccc(F)c4Cl)c3c2)cnn1CC(C)(C)O [Example 11, 1-(4-{3-[(1S)-1-(2-Chloro-3-fluoro-6-methoxyphenyl)ethyl]-1H-pyrrolo[2,3-b]pyridin-5-yl}-5-ethyl-1H-pyrazol-1-yl)-2-methylpropan-2-ol]
< 6.00 | 6.00 to 6.70 | COc1ccc(F)c(Cl)c1[C@@H](C)c1c[nH]c2ncc(-c3cn(C)nc3CO)cc12 [Example 42, (4-{3-[(1S)-1-(2-Chloro-3-fluoro-6-methoxyphenyl)ethyl]-1H-pyrrolo[2,3-b]pyridin-5-yl}-1-methyl-1H-pyrazol-3-yl)methanol]
